{"source": "patent US10441620B2", "about": "“Method for protection of bladder from damage” (Wellstrong Biotech Co., Ltd., priority 2016, dated 2019)", "assay": "CUPRAC assay for total antioxidants", "details": "absorbance at 450 nm", "procedure": "The CUPRAC assay was utilized to determine the total antioxidant capacity. This assay relies on the electron donating capabilities of antioxidants to reduce the copper ion. The CUPRAC working solution consisted of 10 mM copper (II) chloride dihydrate, 1M ammonium acetate, and 7.5 mM neocuproine. 0.15 mL of the above three solutions were added to 0.15 mL of each sample and allowed to react for 30 minutes at room temperature, after which the absorbance was read at 450 nm in a Hitachi U-2001 spectrophotometer."}
{"molecule": "O=C1O[C@H]([C@@H](O)CO)C(O)=C1O", "note": "[ascorbic acid]", "values": [{"measurement": "total antioxidant activity (antioxidant value of standard curve)", "result": "27±1.7 mg Ascorbic acid per mOD optical density"}]}
